Where two headings read alike, the source gives them in different places.
Key:
Experiment in all cases: Antibacterial activity, MIC by agar dilution (CLSI)
Assay type in all cases: cell-based
E. coli 13351 = details: compound tested alone
Protocol: (§1) The biological activity of representative compounds according to the invention against various bacterial strains was investigated. In a typical study, overnight grown bacterial cultures were diluted appropriately and inoculated on the agar media containing doubling dilutions of the test compounds. Observations for growth or no growth was performed after 16-20 hours of incubation at 35±2° C. in the ambient air. The overall procedure was performed as per Clinical and Laboratory Standards Institute (CLSI) recommendations, (Clinical and Laboratory Standards Institute (CLSI), Performance Standards for Antimicrobial Susceptibility Testing, 20th Informational Supplement, M07-A9, Volume 32, No. 2, 2012). Molten Mueller Hinton Agar (BD, USA) containing serial dilutions of each antibacterial agent were poured on to the plates and allowed to solidify. Appropriate suspensions from the freshly grown cultures were prepared in normal saline so that about 10^4CFU/spot of the organism was delivered on to the drug containing agar plates using automated multipoint inoculator (Mast, UK). The plates were incubated in Biochemical oxygen demand (BOD) incubator at 37° C. for 18 hours and then examined for growth.
(§2) Method for the determination of MIC: The Minimum Inhibitory Concentration (MIC) determination for the combinations was carried out in Muller Hinton Agar (MHA) (BD, USA) according to Clinical and Laboratory Standards Institute (CLSI) recommendations, (Clinical and Laboratory Standards Institute (CLSI), Performance Standards for Antimicrobial Susceptibility Testing, 20th Informational Supplement, M 100-S20, Volume 30, No. 1, 2010). In short, the test strains were adjusted to deliver about 10^4CFU per spot with a multipoint inoculator (Applied Quality Services, UK). The plates were poured with MHA containing doubling concentration range of representative compounds according to present invention. The plates were inoculated and were incubated at 35° C. for 18 hour. […] The Table 2 depicts the antibacterial activity profile of compounds according to present invention against various multidrug resistant bacterial strains.

E. coli 13352 = details: compound tested alone
Protocol: as §1, §2

E. coli 13353 = details: compound tested alone
Protocol: as §1, §2

E. coli 7 MP = details: compound tested alone
Protocol: as §1, §2

E. coli H 483 = tested on: E. coli H 483
Protocol: as §1, §2

E. coli M 138 = details: compound tested alone
Protocol: as §1, §2

E. coli M 36 = details: compound tested alone
Protocol: as §1, §2

E. coli M 49 = details: compound tested alone
Protocol: as §1, §2

E. coli M 50 = details: compound tested alone
Protocol: as §1, §2

[1] = tested on: K. pneumoniae ATCC 700603
Protocol: as §1, §2

K. pneumoniae H 521 = details: compound tested alone
Protocol: as §1, §2

K. pneumoniae H 522 = details: compound tested alone
Protocol: as §1, §2

K. pneumoniae H 523 = details: compound tested alone
Protocol: as §1, §2

K. pneumoniae H 525 = details: compound tested alone
Protocol: as §1, §2

P. mirabilis S 137B = details: compound tested alone
Protocol: as §1, §2

[2] = Escherichia coli, 13351, E. coli 13351, read-out: MIC
[3] = Escherichia coli, 13352, E. coli 13352, read-out: MIC
[4] = Escherichia coli, 13353, E. coli 13353, read-out: MIC
[5] = Escherichia coli, 7MP, read-out: MIC
[6] = Escherichia coli, H483, compound tested alone, read-out: MIC
[7] = Escherichia coli, M138, E. coli M 138, read-out: MIC
[8] = Escherichia coli, M36, E. coli M 36, read-out: MIC
[9] = Escherichia coli, M49, E. coli M 49, read-out: MIC
[10] = Escherichia coli, M50, E. coli M 50, read-out: MIC
[11] = Klebsiella pneumoniae, ATCC700603, compound tested alone, read-out: MIC
[12] = Klebsiella pneumoniae, H521, K. pneumoniae H 521, read-out: MIC
[13] = Klebsiella pneumoniae, H522, K. pneumoniae H 522, read-out: MIC
[14] = Klebsiella pneumoniae, H523, K. pneumoniae H 523, read-out: MIC
[15] = Klebsiella pneumoniae, H525, K. pneumoniae H 525, read-out: MIC
[16] = Proteus mirabilis, S137B, read-out: MIC

Structure (SMILES) | MIC (E. coli 13351; [2]) | MIC (E. coli 13352; [3]) | MIC (E. coli 13353; [4]) | MIC (E. coli 7 MP; [5]) | MIC (E. coli H 483; [6]) | MIC (E. coli M 138; [7]) | MIC (E. coli M 36; [8]) | MIC (E. coli M 49; [9]) | MIC (E. coli M 50; [10]) | MIC [1, 11] | MIC (K. pneumoniae H 521; [12]) | MIC (K. pneumoniae H 522; [13]) | MIC (K. pneumoniae H 523; [14]) | MIC (K. pneumoniae H 525; [15]) | MIC (P. mirabilis S 137B; [16]) | also measured
CC(C)(O/N=C(\C(=O)N[C@@H]1C(=O)N2C(C(=O)[O-])=C(C[n+]3ccccc3)CS[C@H]12)c1csc(N)n1)C(=O)O [Ceftazidime, reference compound] | – | – | – | – | – | – | – | – | – | – | – | – | – | – | – | MIC (E. coli 13351; E. coli 13351): 16 µg/mL; MIC (E. coli 13352; E. coli 13352): >32 µg/mL; MIC (E. coli 13353; E. coli 13353): >32 µg/mL; MIC (E. coli 7 MP): >32 µg/mL; MIC (E. coli H 483; compound tested alone): >32 µg/mL; MIC (E. coli M 138; E. coli M 138): >32 µg/mL; MIC (E. coli M 36; E. coli M 36): >32 µg/mL; MIC (E. coli M 49; E. coli M 49): >32 µg/mL; MIC (E. coli M 50; E. coli M 50): >32 µg/mL; MIC ([1]; compound tested alone): 16 µg/mL; MIC (K. pneumoniae H 521; K. pneumoniae H 521): >32 µg/mL; MIC (K. pneumoniae H 522; K. pneumoniae H 522): >32 µg/mL; MIC (K. pneumoniae H 523; K. pneumoniae H 523): >32 µg/mL; MIC (K. pneumoniae H 525; K. pneumoniae H 525): >32 µg/mL; MIC (P. mirabilis S 137B): >32 µg/mL
O=C(NOC[C@H]1C[C@H](n2ncnn2)CN1)[C@@H]1CC[C@@H]2CN1C(=O)N2OS(=O)(=O)O [Example 11] | 4 µg/mL | 2 µg/mL | 2 µg/mL | 8 µg/mL | > 32 µg/mL | 2 µg/mL | 2 µg/mL | 16 µg/mL | 2 µg/mL | > 32 µg/mL | 4 µg/mL | 4 µg/mL | 4 µg/mL | 2 µg/mL | > 32 µg/mL | –
O=C(NOC[C@H]1C[C@H](n2ccnn2)CN1)[C@@H]1CC[C@@H]2CN1C(=O)N2OS(=O)(=O)O [Example 14] | 4 µg/mL | 4 µg/mL | 2 µg/mL | 4 µg/mL | > 32 µg/mL | 2 µg/mL | 2 µg/mL | 8 µg/mL | 2 µg/mL | > 32 µg/mL | 4 µg/mL | 4 µg/mL | 4 µg/mL | 4 µg/mL | > 32 µg/mL | –
O=C(NOC[C@H]1C[C@H](n2cnnn2)CN1)[C@@H]1CC[C@@H]2CN1C(=O)N2OS(=O)(=O)O [Example 12] | 4 µg/mL | 2 µg/mL | 2 µg/mL | 8 µg/mL | > 32 µg/mL | 2 µg/mL | 2 µg/mL | 16 µg/mL | 2 µg/mL | > 32 µg/mL | 4 µg/mL | 4 µg/mL | 4 µg/mL | 4 µg/mL | > 32 µg/mL | –
O=C(NOC[C@@H]1C[C@H](n2cnnn2)CN1)[C@@H]1CC[C@@H]2CN1C(=O)N2OS(=O)(=O)O [Example 4] | 4 µg/mL | 2 µg/mL | 2 µg/mL | 4 µg/mL | > 32 µg/mL | 2 µg/mL | 2 µg/mL | 8 µg/mL | 2 µg/mL | > 32 µg/mL | 4 µg/mL | 4 µg/mL | 4 µg/mL | 4 µg/mL | > 32 µg/mL | –

The next lines start with results.

MIC (E. coli 13351; [2]) | MIC (E. coli 13352; [3]) | MIC (E. coli 13353; [4]) | MIC (E. coli 7 MP; [5]) | MIC (E. coli H 483; [6]) | MIC (E. coli M 138; [7]) | MIC (E. coli M 36; [8]) | MIC (E. coli M 49; [9]) | MIC (E. coli M 50; [10]) | MIC [1, 11] | MIC (K. pneumoniae H 521; [12]) | MIC (K. pneumoniae H 522; [13]) | MIC (K. pneumoniae H 523; [14]) | MIC (K. pneumoniae H 525; [15]) | MIC (P. mirabilis S 137B; [16]) | Structure (SMILES) | also measured
2 µg/mL | 2 µg/mL | 1 µg/mL | 4 µg/mL | > 32 µg/mL | 1 µg/mL | 1 µg/mL | 4 µg/mL | 1 µg/mL | > 32 µg/mL | 2 µg/mL | 2 µg/mL | 2 µg/mL | 2 µg/mL | > 32 µg/mL | O=C(NOC[C@@H]1C[C@H](n2ccnc2)CN1)[C@@H]1CC[C@@H]2CN1C(=O)N2OS(=O)(=O)O [Example 10] | –
2 µg/mL | 2 µg/mL | 1 µg/mL | 4 µg/mL | > 32 µg/mL | 1 µg/mL | 1 µg/mL | 8 µg/mL | 2 µg/mL | > 32 µg/mL | 2 µg/mL | 2 µg/mL | 2 µg/mL | 2 µg/mL | > 32 µg/mL | O=C(NOC[C@H]1C[C@H](n2nccn2)CN1)[C@@H]1CC[C@@H]2CN1C(=O)N2OS(=O)(=O)O [Example 13] | –

— patent publication US10501464B2, “7-oxo-6-(sulfooxy)-1,6-diazabicyclo[3.2.1]octane-2-carboxamide containing compounds and their use in treating bacterial infections” (WOCKHARDT LIMITED, priority 2015, dated 2019)
